Reference: US20250271426A1, “REDUCTION OF BITTER TASTE OF ACTIVE PHARMACEUTICAL INGREDIENTS AND RELATED ASSAYS AND SCREENING METHODS” (Firmenich Incorporated, priority 2022, published 2025)

How the values were obtained:
Experiment in all cases: FLIPR calcium assay, cells with promiscuous G protein transfected with bitter receptor cDNA
Format in all cases: cell-based
Conditions in all cases: responsive if cellular response of >10% over baseline, Fluo4-AM
[1] = target: T1, T2R receptor SEQ ID NO: 4 (S4) (Homo sapiens, UniProt Q9NYV8)
T1 construct: expressed in transfected cells; host or cells: cells expressing a promiscuous G protein (e.g., G16g44)
T1 sequence (Q9NYV8 1-317): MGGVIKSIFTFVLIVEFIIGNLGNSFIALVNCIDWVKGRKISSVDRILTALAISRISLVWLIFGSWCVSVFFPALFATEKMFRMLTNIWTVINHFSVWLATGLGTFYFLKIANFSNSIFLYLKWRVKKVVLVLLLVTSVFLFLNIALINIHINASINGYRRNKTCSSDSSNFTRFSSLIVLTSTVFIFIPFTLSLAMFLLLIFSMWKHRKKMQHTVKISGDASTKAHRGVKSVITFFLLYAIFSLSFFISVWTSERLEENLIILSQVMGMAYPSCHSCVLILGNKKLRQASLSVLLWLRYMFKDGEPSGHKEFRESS
Procedure: (§1) Cells expressing a promiscuous G protein (e.g., G16g44) were transfected with vectors encoding 22 functional bitter receptor cDNAs, with one receptor per transfection. The cells were transfected directly in 384-well format high-density plates and incubated for 28 hours. Later, cells were loaded with the Ca-specific dye Fluo4-AM. After an incubation of 60 minutes, excess dye is washed off, and cells are stimulated with respective bitter agonists while simultaneously recording changes in intracellular fluorescence using a FLIPR instrument.
(§2) The above protocol was carried out using 94 different active pharmaceutical ingredients (APIs) that span a wide range of different APIs having a diversity of chemical structures. A particular T2R receptor was identified as being responsive to a particular API if it triggered a cellular response of >10% over baseline.

[2] = target: T2, T2R receptor SEQ ID NO: 3 (S3) (Homo sapiens, UniProt Q9NYW0, T156M)
T2 construct: expressed in transfected cells; host or cells: cells expressing a promiscuous G protein (e.g., G16g44)
T2 sequence (Q9NYW0 1-307 T156M): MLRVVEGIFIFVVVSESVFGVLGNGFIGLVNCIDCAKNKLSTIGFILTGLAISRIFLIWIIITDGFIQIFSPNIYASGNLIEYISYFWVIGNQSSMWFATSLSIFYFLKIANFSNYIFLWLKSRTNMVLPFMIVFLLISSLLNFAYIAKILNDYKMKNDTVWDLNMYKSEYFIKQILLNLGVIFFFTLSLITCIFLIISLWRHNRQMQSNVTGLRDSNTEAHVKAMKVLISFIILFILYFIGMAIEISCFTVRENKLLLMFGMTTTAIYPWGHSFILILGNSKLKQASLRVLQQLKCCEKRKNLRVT
Procedure: as §1, §2

[3] = target: T3, T2R receptor SEQ ID NO: 6 (S6) (Homo sapiens, UniProt P59540)
T3 construct: expressed in transfected cells; host or cells: cells expressing a promiscuous G protein (e.g., G16g44)
T3 sequence (P59540 1-309): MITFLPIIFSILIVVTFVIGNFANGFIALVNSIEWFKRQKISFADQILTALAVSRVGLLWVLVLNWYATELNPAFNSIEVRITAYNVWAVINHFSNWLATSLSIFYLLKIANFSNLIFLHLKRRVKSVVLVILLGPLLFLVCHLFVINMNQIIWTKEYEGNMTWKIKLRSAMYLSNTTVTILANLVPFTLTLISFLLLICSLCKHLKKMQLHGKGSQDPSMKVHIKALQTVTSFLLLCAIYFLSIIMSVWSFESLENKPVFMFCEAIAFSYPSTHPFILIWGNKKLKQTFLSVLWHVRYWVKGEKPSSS
Procedure: as §1, §2

[4] = target: T4, T2R receptor SEQ ID NO: 5 (S5) (Homo sapiens, UniProt P59534)
T4 construct: expressed in transfected cells; host or cells: cells expressing a promiscuous G protein (e.g., G16g44)
T4 sequence (P59534 18-338): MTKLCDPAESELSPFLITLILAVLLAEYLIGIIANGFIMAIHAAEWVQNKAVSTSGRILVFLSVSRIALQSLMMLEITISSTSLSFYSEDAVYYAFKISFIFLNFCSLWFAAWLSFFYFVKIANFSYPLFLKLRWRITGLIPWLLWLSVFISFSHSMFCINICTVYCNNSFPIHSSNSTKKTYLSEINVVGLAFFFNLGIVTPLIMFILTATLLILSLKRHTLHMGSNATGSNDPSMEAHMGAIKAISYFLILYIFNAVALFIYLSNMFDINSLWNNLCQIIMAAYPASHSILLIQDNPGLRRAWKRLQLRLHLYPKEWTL
Procedure: as §1, §2

[5] = target: T5, T2R receptor SEQ ID NO: 1 (S1) (Homo sapiens, UniProt Q9NYW7)
T5 construct: expressed in transfected cells; host or cells: cells expressing a promiscuous G protein (e.g., G16g44)
T5 sequence (Q9NYW7 1-299): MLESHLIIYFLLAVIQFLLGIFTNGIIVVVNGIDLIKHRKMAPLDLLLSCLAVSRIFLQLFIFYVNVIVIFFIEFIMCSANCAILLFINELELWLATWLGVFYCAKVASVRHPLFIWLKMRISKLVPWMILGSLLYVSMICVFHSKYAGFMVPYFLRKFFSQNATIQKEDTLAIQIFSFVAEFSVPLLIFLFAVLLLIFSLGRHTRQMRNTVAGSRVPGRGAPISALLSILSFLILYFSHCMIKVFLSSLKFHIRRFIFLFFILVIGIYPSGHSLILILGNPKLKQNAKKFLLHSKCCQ
Procedure: as §1, §2

C=C[C@H]1C[N@@]2CC[C@H]1C[C@H]2[C@H](O)c1ccnc2ccc(OC)cc12 [Quinine]
S4 positive response of T2R receptor to API [1]: + (a “+” to indicate whether a particular T2R receptor showed a positive response to a particular API)
S3 positive response of T2R receptor to API [2]: + (a “+” to indicate whether a particular T2R receptor showed a positive response to a particular API)
S6 positive response of T2R receptor to API [3]: + (a “+” to indicate whether a particular T2R receptor showed a positive response to a particular API)
S5 positive response of T2R receptor to API [4]: + (a “+” to indicate whether a particular T2R receptor showed a positive response to a particular API)

Cc1cc(N)c2ccccc2[n+]1CCCCCCCCCC[n+]1c(C)cc(N)c2ccccc21 [Dequalinium]
S6 positive response of T2R receptor to API [3]: + (a “+” to indicate whether a particular T2R receptor showed a positive response to a particular API)
S5 positive response of T2R receptor to API [4]: + (a “+” to indicate whether a particular T2R receptor showed a positive response to a particular API)

COC(=O)[C@H](c1ccccc1Cl)N1CCc2sccc2C1 [Clopidogrel]
S1 positive response of T2R receptor to API [5]: + (a “+” to indicate whether a particular T2R receptor showed a positive response to a particular API)
S3 positive response of T2R receptor to API [2]: + (a “+” to indicate whether a particular T2R receptor showed a positive response to a particular API)

COC(=O)[C@@H]1[C@H]2C[C@H]3c4[nH]c5ccccc5c4CCN3C[C@@H]2CC[C@@H]1O [Yohimbine]
S1 positive response of T2R receptor to API [5]: + (a “+” to indicate whether a particular T2R receptor showed a positive response to a particular API)
S3 positive response of T2R receptor to API [2]: + (a “+” to indicate whether a particular T2R receptor showed a positive response to a particular API)
S6 positive response of T2R receptor to API [3]: + (a “+” to indicate whether a particular T2R receptor showed a positive response to a particular API)

COc1cc2c(c(OC)c1OC)-c1ccc(OC)c(=O)cc1[C@@H](NC(C)=O)CC2 [Colchicine]
S6 positive response of T2R receptor to API [3]: + (a “+” to indicate whether a particular T2R receptor showed a positive response to a particular API)
S5 positive response of T2R receptor to API [4]: + (a “+” to indicate whether a particular T2R receptor showed a positive response to a particular API)

CC(CCc1ccccc1)NCC(O)c1ccc(O)c(C(N)=O)c1 (stereo not shown) [Labetalol]
S3 positive response of T2R receptor to API [2]: + (a “+” to indicate whether a particular T2R receptor showed a positive response to a particular API)
S6 positive response of T2R receptor to API [3]: + (a “+” to indicate whether a particular T2R receptor showed a positive response to a particular API)
S5 positive response of T2R receptor to API [4]: + (a “+” to indicate whether a particular T2R receptor showed a positive response to a particular API)

CC(C)(C(=O)O)c1ccc(C(O)CCCN2CCC(C(O)(c3ccccc3)c3ccccc3)CC2)cc1 (stereo not shown) [Fexofenadine]
S1 positive response of T2R receptor to API [5]: + (a “+” to indicate whether a particular T2R receptor showed a positive response to a particular API)
S6 positive response of T2R receptor to API [3]: + (a “+” to indicate whether a particular T2R receptor showed a positive response to a particular API)
S5 positive response of T2R receptor to API [4]: + (a “+” to indicate whether a particular T2R receptor showed a positive response to a particular API)

CC[N+](C)(C)c1cccc(O)c1 [Edrophonium]
S1 positive response of T2R receptor to API [5]: + (a “+” to indicate whether a particular T2R receptor showed a positive response to a particular API)
S6 positive response of T2R receptor to API [3]: + (a “+” to indicate whether a particular T2R receptor showed a positive response to a particular API)
S5 positive response of T2R receptor to API [4]: + (a “+” to indicate whether a particular T2R receptor showed a positive response to a particular API)

CCN(CC)CC#CCOC(=O)C(O)(c1ccccc1)C1CCCCC1 (stereo not shown) [Oxybutynin Chloride]
S4 positive response of T2R receptor to API [1]: + (a “+” to indicate whether a particular T2R receptor showed a positive response to a particular API)
S3 positive response of T2R receptor to API [2]: + (a “+” to indicate whether a particular T2R receptor showed a positive response to a particular API)
S6 positive response of T2R receptor to API [3]: + (a “+” to indicate whether a particular T2R receptor showed a positive response to a particular API)
S5 positive response of T2R receptor to API [4]: + (a “+” to indicate whether a particular T2R receptor showed a positive response to a particular API)

CC(=O)Oc1ccc(C(c2ccc(OC(C)=O)cc2)c2ccccn2)cc1 [Bisacodyl]
S4 positive response of T2R receptor to API [1]: + (a “+” to indicate whether a particular T2R receptor showed a positive response to a particular API)
S1 positive response of T2R receptor to API [5]: + (a “+” to indicate whether a particular T2R receptor showed a positive response to a particular API)
S6 positive response of T2R receptor to API [3]: + (a “+” to indicate whether a particular T2R receptor showed a positive response to a particular API)

CC(=O)Nc1ccc(O)cc1 [Acetaminophen]
S5 positive response of T2R receptor to API [4]: + (a “+” to indicate whether a particular T2R receptor showed a positive response to a particular API)

CC[C@H]1OC(=O)[C@H](C)[C@@H](O[C@H]2C[C@@](C)(OC)[C@@H](O)[C@H](C)O2)[C@H](C)[C@@H](O[C@@H]2O[C@H](C)C[C@H](N(C)C)[C@H]2O)[C@](C)(OC)C[C@@H](C)C(=O)[C@H](C)[C@@H](O)[C@]1(C)O [Clarithromycin]
S1 positive response of T2R receptor to API [5]: + (a “+” to indicate whether a particular T2R receptor showed a positive response to a particular API)
S3 positive response of T2R receptor to API [2]: + (a “+” to indicate whether a particular T2R receptor showed a positive response to a particular API)
S5 positive response of T2R receptor to API [4]: + (a “+” to indicate whether a particular T2R receptor showed a positive response to a particular API)

C=CC[C@@H]1/C=C(\C)C[C@H](C)C[C@H](OC)[C@H]2O[C@@](O)(C(=O)C(=O)N3CCCC[C@H]3C(=O)O[C@H](/C(C)=C/[C@@H]3CC[C@@H](O)[C@H](OC)C3)[C@H](C)[C@@H](O)CC1=O)[C@H](C)C[C@@H]2OC [Fujimycin]
S1 positive response of T2R receptor to API [5]: + (a “+” to indicate whether a particular T2R receptor showed a positive response to a particular API)

CC12CCC(CC1)C(C)(C)O2 [Eucalyptol]
S4 positive response of T2R receptor to API [1]: + (a “+” to indicate whether a particular T2R receptor showed a positive response to a particular API)
S1 positive response of T2R receptor to API [5]: + (a “+” to indicate whether a particular T2R receptor showed a positive response to a particular API)

CCN(CC)CCNC(=O)c1ccc(N)cc1 [Procaineamide]
S3 positive response of T2R receptor to API [2]: + (a “+” to indicate whether a particular T2R receptor showed a positive response to a particular API)
S6 positive response of T2R receptor to API [3]: + (a “+” to indicate whether a particular T2R receptor showed a positive response to a particular API)
S5 positive response of T2R receptor to API [4]: + (a “+” to indicate whether a particular T2R receptor showed a positive response to a particular API)

Cc1cc(NS(=O)(=O)c2ccc(N)cc2)no1 [Sulfamethoxazole]
S1 positive response of T2R receptor to API [5]: + (a “+” to indicate whether a particular T2R receptor showed a positive response to a particular API)
